Source: article PMC10928227, “Assessing biologic/toxicologic effects of extractables from plastic contact materials for advanced therapy manufacturing using cell painting assay and cytotoxicity screening” (Scientific Reports, 2024)
Several values for one entry are separate records, joined by “and”; a condition that tells them apart may be missing. Equal entries are not always repeated. Entries after “also recorded” stand apart in the source; their conditions may differ. Where two headings read alike, the source gives them in different places.

Assays:
[1] = test system: U2OS human osteosarcoma cells; assay: Cell painting assay (CPA), morphological profiling and cell count; format: cell-based; details: for Percentage of changed features, AreaShape group: shape of the cells; for Lysosomotropic behavior in CPA: cluster assignment in words, N-Lauryldiethanolamine at 30 µM
Description: Initially, 5 µL U2OS medium were added to each well of a 384-well plate (PerkinElmer CellCarrier-384 Ultra). Subsequently, U2OS cell were seeded with a density of 1600 cells per well in 20 µL medium. The plate was incubated for 10 min at room temperature (RT), followed by an additional 4 h incubation (37 °C, 5% CO2). […] Incubation with compound was performed for 20 h (37 °C, 5% CO2). Subsequently, mitochondria were stained with Mito Tracker Deep Red (Thermo Fisher Scientific, Cat. No. M22426). The Mito Tracker Deep Red stock solution (1 mM) was diluted to a final concentration of 100 nM in prewarmed medium. The medium was removed from the plate leaving 10 µL residual volume and 25 µL of the Mito Tracker solution were added to each well. The plate was incubated for 30 min in darkness (37 °C, 5% CO2). To fix the cells, 7 µl of 18.5% formaldehyde in PBS were added, resulting in a final formaldehyde concentration of 3.7%. Subsequently, the plate was incubated for another 20 min in darkness (RT) and washed three times with 70 µL of PBS (Biotek Washer Elx405). Cells were permeabilized by addition of 25 µL 0.1% Triton X-100 to each well, followed by 15 min incubation (RT) in darkness. The cells were washed three times with PBS leaving a final volume of 10 µL. To each well 25 µL of a staining solution were added, which contains 1% BSA, 5 µL/mL Phalloidin (Alexa594 conjugate, Thermo Fisher Scientific, A12381), 25 µg/ml Concanavalin A (Alexa488 conjugate, Thermo Fisher Scientific, Cat. No. C11252), 5 µg/ml Hoechst 33342 (Sigma, Cat. No. B2261-25 mg), 1.5 µg/ml WGA-Alexa594 conjugate (Thermo Fisher Scientific, Cat. No. W11262) and 1.5 µM SYTO 14 solution (Thermo Fisher Scientific, Cat. No. S7576). The plate is incubated for 30 min (RT) in darkness and washed three times with 70 µL PBS. After the final washing step, the PBS was not aspirated. The plates were sealed and centrifuged for 1 min at 50 × g.
The images generated were processed with the CellProfiler package (https://cellprofiler.org/, version 3.0.0) on a computing cluster of the Max Planck Society to extract 1716 cell features per microscope site. The data was further aggregated as medians per well (9 sites → 1 well), then over the three replicates.
Out of the initial 1716 features, a subset of 579 highly reproducible and robust features was determined using a procedure based on the criteria described by Woehrmann et al.[54] Two biological repeats of one plate containing reference compounds were analysed. For every feature, its full profile over each whole plate was calculated. […] This procedure was performed once and served as the basis for all subsequent analyses.
The phenotypic profiles were compiled from the Z-scores of all individual cellular features, where the Z-score is a measure of how far away a data point is from a median value.
Specifically, Z-scores of test compounds were calculated relative to the Median of DMSO controls. Thus, the Z-score of a test compound defines how many MADs (Median Absolute Deviations) the measured value is away from the Median of the controls as illustrated by the following formula: Z-score=valuemeas.-MedianControls/MADControls
The phenotypic compound profile is then determined as the list of Z-scores of all features for one compound and is visualized via heatmap (examplarily see Fig. 2).

[2] = test system: murine mesodermal stem cells (C3H10T1/2); assay: Osteogenesis inhibition assay (OIA), purmorphamine-induced alkaline phosphatase expression; format: cell-based; details: for IC50: read-out: Osteogenesis inhibition assay IC50
Description: The osteogenesis inhibition assay was performed as described elsewhere[57]. Briefly, murine mesodermal stem cells (C3H10T1/2) were stimulated with purmorphamine (a Hedgehog agonist) to induce the expression of the osteogenesis marker alkaline phosphatase.

CHO DG44 cells = assay: Cytotoxicity testing with CHO cells, cell growth spiking experiments (ASTM E3231-19); format: cell-based, Chinese hamster; details: read-out: EC50 with CHO cells
Description: The cell line was adapted to grow in suspension without animal-derived supplements. […] This method determines effective concentrations (EC50) that cause 50% inhibition of cell growth. Data evaluation was carried out according to the method described in ASTM E3231-19, “Standard Guide for Cell Culture Growth Assessment of Single-Use Material[23]”. This test defines best practices using serum-free, chemically-defined cell culture medium to prevent false negative results.

CHO cells = test system: CHO cells; design: method as in ref 22 (supplement); details: detrimental effect on cell growth; ref 22 (supplement); cited from earlier work
[3] = test system: different industrial cell lines; design: method as in PMID 34411651, PMID 32535801, PMID 32748552; details: read-out: EC50 cell growth; cited from earlier work
[4] = cited from earlier work
[5] = Database Genotoxicity & Carcinogenicity ECVAM, ref EURL ECVAM genotoxicity and carcinogencity database, Madia F et al, 2020, cited from earlier work
[6] = biosimilarity of CPA sub-profile to cluster
[7] = C3H10T1/2, purmorphamine, 96 h, alkaline phosphatase expression
[8] = CHO DG44, serum-free chemically defined medium, 72 h, 50% inhibition of cell growth
[9] = 30 µM, U2OS, 20 h, percentage of altered features (579) vs DMSO controls
[10] = in Vitro, Database Genotoxicity & Carcinogenicity ECVAM, ref EURL ECVAM genotoxicity and carcinogencity database, Madia F et al, 2020

CC(C)(C)c1ccc(OP(=O)(O)Oc2ccc(C(C)(C)C)cc2C(C)(C)C)c(C(C)(C)C)c1 [bDtBPP, bis(2,4-di-tert-butylphenyl)phosphate]
Cell count ([1]; 50 µM, U2OS, 20 h): 87 (50 µM) % of control
Induction in CPA ([1]; 50 µM, U2OS, 20 h, percentage of altered features (579) vs DMSO controls): 17 (50 µM) %
Percentage of changed features, AreaShape group ([1]; Fig. 6): approx. 20%
Highest similarity to biological clusters: DNA synthesis [1, 6]: DNA synthesis (65%)
Impact on cell growth of U2OS cells ([1]; concentrations ≤ 50 µM, in words): no impact on cell growth
IC50 [2, 7]: 6.8 µM
EC50 (CHO DG44 cells; [8]): 0.6 µM
EC50 (CHO cells): < 1 µM
EC50 [3]: < 1 µM

Cc1cc(C)c(C(=O)P(=O)(c2ccccc2)c2ccccc2)c(C)c1 [TPO, diphenyl(2,4,6-trimethylbenzoyl)phosphine oxide]
Induction in CPA [1, 9]: 11 (30 µM) %
Cell count ([1]; 50 µM, U2OS, 20 h): 94 (50 µM) % of control
Percentage of changed features, nuclei (Hoechst) channel ([1]; Fig. 6): approx. 5%
Percentage of changed features, AreaShape group ([1]; Fig. 6): ~30%
Highest similarity to biological clusters: HDAC [1, 6]: 77%
Lysosomotropic behavior in CPA [1]: lysosomotropic behavior; also recorded: Weak lysosomotropic
IC50 ([2]; Mus musculus, C3H 10T1/2, C3H10T1/2, purmorphamine, 96 h, alkaline phosphatase expression): 5 µM
EC50 (CHO DG44 cells; Cricetulus griseus, CHO DG44, serum-free chemically defined medium, 72 h, 50% inhibition of cell growth): 4.4 µM
Risk based on in vitro genotoxicity data from database (from QSAR-toolbox) ([4]; not checked for in vivo relevance, ref QSAR Toolbox 4.5 database): No alert

CCCCCCCCCc1ccc(O)cc1 [4-n-Nonylphenol]
Induction in CPA [1, 9]: 17 (30 µM) %
Cell count ([1]; 50 µM, U2OS, 20 h): 91 (50 µM) % of control
Highest similarity to biological clusters: DNA synthesis [1, 6]: DNA synthesis (70%)
IC50 ([2]; Mus musculus, C3H 10T1/2, 96 h): 3.8 µM
EC50 (CHO DG44 cells; Cricetulus griseus, CHO-DG44, 72 h): > 4.5 µM

CCCCCCCCCCCCN(CCO)CCO [N-Lauryldiethanolamine]
Induction in CPA ([1]; 3 µM, U2OS, 20 h, percentage of altered features (579) vs DMSO controls): 61% and 61 (3 µM) %
U2OS cell count compared to the control ([1]; 30 µM, after 24 h incubation): 50%
Cell count ([1]; 50 µM, U2OS, 20 h): 11 (50 µM) % of control
Percentage of changed features, all channels ([1]; Fig. 6, 3 µm): 50 to 90%
Percentage of changed features, AreaShape group ([1]; Fig. 6): all features
Concentration from which strong inhibitory effect on cell growth starts ([1]; U2OS, CPA): ≥ 30 µM
Highest similarity to biological clusters: Cholesterol homeostasis [1, 6]: 88%
Lysosomotropic behavior in CPA [1]: some lysosomotropic behavior
Induction in CPA ([1]; tested concentrations ≤ 50 µM, concentration not given at the place, active threshold 5%): > 5%
Toxic concentration in the osteogenesis inhibition assay ([2]; C3H10T1/2, excluded from dose-response measurement): ≥ 10 µM
IC50 [2, 7]: ≥ 10 µM
EC50 (CHO DG44 cells; [8]): 2.1 µM

CC(C)(c1ccc(O)cc1)c1ccc(O)cc1 [80-05-7]
Chromosome aberration, in Vivo Mammalian Chromosome Aberration Test [5]: Positive
Chromosome aberration, Micronucleus Assay ([5]; in Vivo): Negative
Gene mutation, Bacterial Reverse Mutation Assay (e.g. Ames Test) ([4]; Salmonella typhimurium, No Strain Information, in Vitro, Database: Genotoxicity OASIS, ref Mutation Research 584 (2005) 1-256, Kirkland et al.): Negative
Gene mutation, Bacterial Reverse Mutation Assay (e.g. Ames Test) ([4]; Salmonella typhimurium, Strain TA 97A, in Vitro, Database: Bacterial mutagenicity ISSSTY, ref CCRIS database,Toxnet databases (Romualdo Benigni)): Negative
Gene mutation, Bacterial Reverse Mutation Assay (e.g. Ames Test) ([4]; Salmonella typhimurium, Strain TA 98, in Vitro, Database: Bacterial mutagenicity ISSSTY, ref CCRIS database,Toxnet databases (Romualdo Benigni)): Negative
Gene mutation, Bacterial Reverse Mutation Assay (e.g. Ames Test) ([4]; Salmonella typhimurium, Strain TA 98, in Vitro, Database: Genotoxicity OASIS, ref P&G): Negative
Gene mutation, Bacterial Reverse Mutation Assay (e.g. Ames Test) ([4]; Salmonella typhimurium, Strain TA 100, in Vitro, Database: Bacterial mutagenicity ISSSTY, ref CCRIS database,Toxnet databases (Romualdo Benigni)): Negative
Gene mutation, Bacterial Reverse Mutation Assay (e.g. Ames Test) ([4]; Salmonella typhimurium, Strain TA 100, in Vitro, Database: Genotoxicity OASIS, ref P&G): Negative
Gene mutation, Bacterial Reverse Mutation Assay (e.g. Ames Test) ([4]; Salmonella typhimurium, Strain TA 102, in Vitro, Database: Bacterial mutagenicity ISSSTY, ref CCRIS database,Toxnet databases (Romualdo Benigni)): Negative
Gene mutation, Bacterial Reverse Mutation Assay (e.g. Ames Test) ([4]; Salmonella typhimurium, Strain TA 1535, in Vitro, Database: Bacterial mutagenicity ISSSTY, ref CCRIS database,Toxnet databases (Romualdo Benigni)): Negative
Gene mutation, Bacterial Reverse Mutation Assay (e.g. Ames Test) ([4]; Salmonella typhimurium, Strain TA 1535, in Vitro, Database: Genotoxicity OASIS, ref P&G): Negative
Gene mutation, Bacterial Reverse Mutation Assay (e.g. Ames Test) ([4]; Salmonella typhimurium, Strain TA 1537, in Vitro, Database: Bacterial mutagenicity ISSSTY, ref CCRIS database,Toxnet databases (Romualdo Benigni)): Negative
Gene mutation, Bacterial Reverse Mutation Assay (e.g. Ames Test) ([4]; Salmonella typhimurium, Strain TA 1537, in Vitro, Database: Genotoxicity OASIS, ref P&G): Negative
Chromosome aberration, in Vitro Mammalian Chromosome Aberration Test ([4]; in Vitro, Chinese hamster, Chinese Hamster Lung (CHL), Duration 6÷18 h, Database Genotoxicity OASIS, ref Sofuni, T., Ed. (1998). Data Book of Chromosomal Aberration Test In Vitro, Revised Edition): Negative
Chromosome aberration, in Vitro Mammalian Chromosome Aberration Test ([4]; in Vitro, Chinese hamster, Chinese Hamster Lung (CHL), Duration 24÷48 h, Database Genotoxicity OASIS, ref Sofuni, T., Ed. (1998). Data Book of Chromosomal Aberration Test In Vitro, Revised Edition): Negative
Chromosome aberration, Micronucleus Assay [4, 10]: Negative
Chromosome aberration, in Vitro Mammalian Chromosome Aberration Test [4, 10]: Positive
Gene mutation, Bacterial Reverse Mutation Assay (e.g. Ames Test) [4, 10]: Negative
Gene mutation, Mammalian Cell Gene Mutation (MLA HPRT) [4, 10]: Inadequate
Chromosome aberration, in Vitro Mammalian Chromosome Aberration Test ([4]; in Vitro, No Strain Information, Database Genotoxicity OASIS, ref Mutation Research 584 (2005) 1-256, Kirkland et al.): Positive
Gene mutation, Bacterial Reverse Mutation Assay (e.g. Ames Test) ([4]; in Vitro, Salmonella typhimurium, No Strain Information, Database Genotoxicity OASIS, ref Journal of Medicinal Chemistry 48 (1), pp. 312-32, 25, Kazius J, McGuire R., Bursi R): Negative
Gene mutation, Bacterial Reverse Mutation Assay (e.g. Ames Test) ([4]; in Vitro, Salmonella typhimurium, Strain TA 97, Database Genotoxicity OASIS, ref P&G): Negative
Gene mutation, Bacterial Reverse Mutation Assay (e.g. Ames Test) ([4]; in Vitro, Salmonella typhimurium, Strain TA 98, Database Genotoxicity OASIS, ref P&G): Negative
Gene mutation, Bacterial Reverse Mutation Assay (e.g. Ames Test) ([4]; in Vitro, Salmonella typhimurium, Strain TA 100, Database Genotoxicity OASIS, ref P&G): Negative
Gene mutation, Bacterial Reverse Mutation Assay (e.g. Ames Test) ([4]; in Vitro, Salmonella typhimurium, Strain TA 102, OECD Guideline 471, Database Genotoxicity OASIS, ref CCRIS database,Toxnet databases): Negative
Gene mutation, Bacterial Reverse Mutation Assay (e.g. Ames Test) ([4]; in Vitro, Salmonella typhimurium, Strain TA 1535, Database Genotoxicity OASIS, ref P&G): Negative
Gene mutation, Bacterial Reverse Mutation Assay (e.g. Ames Test) ([4]; in Vitro, Salmonella typhimurium, Strain TA 1537, Database Genotoxicity OASIS, ref P&G): Negative
Gene mutation, Bacterial Reverse Mutation Assay (e.g. Ames Test) ([4]; in Vitro, Salmonella typhimurium, Strain TA 1538, Database Genotoxicity OASIS, ref P&G): Negative
Gene mutation, Mammalian Cell Gene Mutation Assay ([4]; in Vitro, T-lymphoma Cell Lines, Database Genotoxicity OASIS, ref Mutation Research 584 (2005) 1-256, Kirkland et al.): Negative
